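Interpolation was linear, between the two tested concentrations surrounding the appropriate level; five concentrations were tested over 48 hours in 96-well plates. GI50 is the concentration that inhibits growth by half. TGI denotes the concentration required for complete inhibition of growth.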
Legend:
Assay in all cases: growth of human tumour cells (NCI), 48 h
CAKI-1 renal = tested on: CAKI-1 renal
IGROV1 ovarian = tested on: IGROV1 ovarian
LXFL 529 NSCLC = tested on: LXFL 529 NSCLC
RXF 393 renal = tested on: RXF 393 renal
SF-268 CNS = tested on: SF-268 CNS
SF-295 CNS = tested on: SF-295 CNS
SK-MEL-2 melanoma = tested on: SK-MEL-2 melanoma
XF 498 CNS = tested on: XF 498 CNS
BT-549 breast = tested on: BT-549 breast
NCI/ADR-RES ovarian = tested on: NCI/ADR-RES ovarian

SMILES | TGI (CAKI-1 renal) | TGI (IGROV1 ovarian) | TGI (LXFL 529 NSCLC) | TGI (RXF 393 renal) | TGI (SF-268 CNS) | TGI (SF-295 CNS) | TGI (SK-MEL-2 melanoma) | TGI (XF 498 CNS) | GI50 (BT-549 breast) | TGI (BT-549 breast) | GI50 (CAKI-1 renal) | GI50 (IGROV1 ovarian) | GI50 (NCI/ADR-RES ovarian) | TGI (NCI/ADR-RES ovarian) | GI50 (RXF 393 renal) | GI50 (SF-268 CNS) | GI50 (SF-295 CNS) | GI50 (SK-MEL-2 melanoma)
O=c1c2ccc3cccc4c(=O)cc(c5ccccc15)-c2c34 | > 100 µM | > 100 µM | > 100 µM | > 100 µM | > 100 µM | > 100 µM | > 100 µM | – | – | – | – | – | – | – | – | – | – | –
Cc1c(C(=O)/C=C/c2ccc(Cl)cc2)[n+](=O)c2ccccc2n1[O-] | 31.6 µM | 39.4 µM | 22.5 µM | 17.9 µM | 28.6 µM | 27.1 µM | – | – | – | – | – | – | – | – | – | – | – | –
CCCCCCCCCCCC(=O)OCC1OC(n2cc(F)c(=O)[nH]c2=O)C(N)C(OC(=O)CCCCCCCCCCC)C1O (stereo not drawn) | > 100 µM | – | > 100 µM | > 100 µM | > 100 µM | > 100 µM | > 100 µM | – | – | – | – | – | – | – | – | – | – | –
CC(=O)OC12c3ccccc3C1CCCCCC21OCCCO1 (stereo not drawn) | > 100 µM | > 100 µM | > 100 µM | > 100 µM | > 100 µM | > 100 µM | > 100 µM | – | – | – | – | – | – | – | – | – | – | –
N=C(N)SCCc1cn2ccccc2n1 | > 100 µM | – | – | – | > 100 µM | > 100 µM | > 100 µM | > 100 µM | – | – | – | – | – | – | – | – | – | –
COc1ccc2c3c1C(=O)CCC3CO2 (stereo not drawn) | > 100 µM | > 100 µM | > 100 µM | – | > 100 µM | > 100 µM | > 100 µM | > 100 µM | – | – | – | – | – | – | – | – | – | –
Cn1c(COC(=O)N2CCCCC2)nc2c(N3CCOCC3)nc(-c3ccccc3)nc21 | 1.51 µM | 1.81 µM | – | 1.76 µM | 2.71 µM | 2.97 µM | 3.25 µM | – | 1.01 µM | 2.26 µM | 0.354 µM | 0.534 µM | 1.67 µM | 5.72 µM | 0.508 µM | 1.33 µM | 1.58 µM | 1.64 µM
O=C(O)/C(=C/c1ccccc1[N+](=O)[O-])c1ccccc1 | > 100 µM | > 100 µM | > 100 µM | – | > 100 µM | > 100 µM | > 100 µM | > 100 µM | – | – | – | – | – | – | – | – | – | –
CC(C)=CCc1c(O)cc(/C=C/c2cc(O)c3c(c2)C[C@@H]2C(C)(C)[C@H](O)[C@H](O)C[C@@]2(C)O3)cc1O | > 5.6 µM | > 10 µM | – | – | > 7.76 µM | 0.00118 µM | – | – | 0.0553 µM | > 7.23 µM | 0.00267 µM | 1.25 µM | 1.38 µM | 7.43 µM | < 0.001 µM | 1.11 µM | < 0.001 µM | 0.0444 µM
CC(ONC(=O)c1cc(C(F)(F)F)cc(C(F)(F)F)c1)C(=O)Nc1ccc(Cl)cc1 (stereo not drawn) | > 76.6 µM | > 52 µM | – | 35.6 µM | > 67.9 µM | 30.9 µM | 15.2 µM | – | 3.71 µM | 16.7 µM | 20.3 µM | 8.86 µM | 6.2 µM | 41.6 µM | 5.95 µM | 5.2 µM | 3.66 µM | 3.65 µM
N=C(c1ccccc1)N(O)C1CCCCC1 | > 100 µM | – | > 100 µM | > 100 µM | > 100 µM | > 100 µM | > 100 µM | – | – | – | – | – | – | – | – | – | – | –
COC(=O)CCC(=O)c1c(C)[nH]c(/C=C2\N=C(c3ccc[nH]3)C=C2OC)c1C | 2.95 µM | 1.6 µM | – | 4.03 µM | 3.1 µM | 4.08 µM | 1.74 µM | – | 0.587 µM | 2.17 µM | 0.869 µM | 0.365 µM | 0.728 µM | 3.66 µM | 1.46 µM | 1.03 µM | 1.62 µM | 0.349 µM
O=[N+]([O-])c1ccccc1N=Nc1c(O)[nH]c2ccccc12 | > 54.7 µM | > 39.9 µM | – | > 74.9 µM | > 100 µM | > 100 µM | > 100 µM | – | – | > 100 µM | – | – | – | > 58.8 µM | – | – | – | –
COc1cc2c(c(OC)c1OC)-c1[nH]ncc1CC2 | > 100 µM | > 100 µM | > 100 µM | – | > 100 µM | > 100 µM | > 100 µM | > 100 µM | – | – | – | – | – | – | – | – | – | –
COc1ccc(O)c(C(=O)c2ccc(C(=O)O[C@@H]3CCCNC[C@H]3NC(=O)c3ccncc3)cc2)c1F | > 25 µM | > 25 µM | – | 0.839 µM | > 25 µM | > 25 µM | 16.6 µM | – | 0.212 µM | 3.36 µM | 0.543 µM | 0.493 µM | 1.87 µM | 24.2 µM | 0.162 µM | 0.753 µM | 0.77 µM | 0.89 µM
O=S1(=O)CCN(Cc2ccccn2)CC1 | > 100 µM | > 100 µM | – | > 100 µM | > 100 µM | > 100 µM | > 100 µM | – | – | > 100 µM | – | – | – | > 100 µM | – | – | – | –
CCOC(=O)CC1(O)C=CC(=O)C=C1 | 4.71 µg/mL | 2.19 µg/mL | – | 1.75 µg/mL | 1.92 µg/mL | 5.07 µg/mL | 4.66 µg/mL | – | 1.48 µg/mL | 3.67 µg/mL | 2.62 µg/mL | 0.885 µg/mL | 1.28 µg/mL | 6.57 µg/mL | 0.666 µg/mL | 0.57 µg/mL | 2.55 µg/mL | 2.33 µg/mL

From PubChem BioAssay (NCI)
